According to PMC3216401 (Antiviral research, 2011):
Like-named read-outs stand apart in the source and are kept apart here.

Experiments:
[1] = test system: A/Hong Kong/213/2003 (H5N1); test: microbe, parasite or virus in culture; conditions: Influenza A virus, H5N1, MDCK, read-out: IC50, Visual Assay
[2] = test system: Influenza A/Vietnam/1203/2004 (H5N1)
[3] = test system: A/Thailand/2(Kan-1)/16/2004 (H5N1); test: microbe, parasite or virus in culture; conditions: Influenza A virus, H5N1, MDCK, read-out: IC50, Visual Assay
[4] = test system: Influenza A/Vietnam/1203/2004 (H5N1); remark: listed apart in the source
influenza virus (H1N1) = conditions: read-out: EC50, influenza virus replication in MDCK cells; cited from earlier work
influenza virus = conditions: mouse, in vivo, sc; cited from earlier work
influenza viruses = test: microbe, parasite or virus in culture; format: cell-based, influenza A and B viruses; conditions: Influenza A virus, read-out: IC50 values, range
[5] = test system: A/Thailand/2(Kan-1)/16/2004 (H5N1)
[6] = test system: A/Hong Kong/213/2003 (H5N1)
[7] = test system: Influenza A/Vietnam/1203/2004 (H5N1); test: microbe, parasite or virus in culture; conditions: H5N1, MDCK, read-out: IC50, Visual Assay
[8] = test system: Influenza A/Vietnam/1203/2004 (H5N1); test: microbe, parasite or virus in culture; conditions: H5N1, MDCK, read-out: IC50, Neutral Red Uptake Assay
[9] = test system: A/Hong Kong/213/2003 (H5N1); remark: listed apart in the source
[10] = test system: A/Hong Kong/213/2003 (H5N1); test: microbe, parasite or virus in culture; conditions: Influenza A virus, H5N1, MDCK, read-out: IC50, Neutral Red Uptake Assay
[11] = test system: A/Thailand/2(Kan-1)/16/2004 (H5N1); remark: listed apart in the source
[12] = test system: A/Thailand/2(Kan-1)/16/2004 (H5N1); test: microbe, parasite or virus in culture; conditions: Influenza A virus, H5N1, MDCK, read-out: IC50, Neutral Red Uptake Assay
MDCK cells [13] = test system: MDCK cells
MDCK cells [14] = test system: MDCK cells; remark: listed apart in the source
[15] = test system: Influenza A/Vietnam/1203/2004 (H5N1); test: microbe, parasite or virus in culture; format: cell-based; conditions: H5N1, MDCK, read-out: IC90, VYR Assay
[16] = test system: A/Hong Kong/213/2003 (H5N1); test: microbe, parasite or virus in culture; format: cell-based; conditions: Influenza A virus, H5N1, MDCK, read-out: IC90, VYR Assay
[17] = mouse, in vivo
[18] = test system: A/Thailand/2(Kan-1)/16/2004 (H5N1); test: microbe, parasite or virus in culture; format: cell-based; conditions: Influenza A virus, H5N1, MDCK, read-out: IC90, VYR Assay
[19] = test system: influenza A/Vietnam/1203/2004 H5N1 virus; conditions: in vivo
in vitro [20] = conditions: dog, CC50, Neutral Red Uptake Assay
in vitro [21] = conditions: dog, CC50, Visual Assay

Row | SMILES | IC50 [1] [µM] | SI (CC50/IC50), Visual Assay [2] | IC50 [3] [µM] | SI (CC50/IC50), Neutral Red Uptake Assay [4] | SI (CC50/IC50), Visual Assay [5] | SI (CC50/IC50), Visual Assay [6] | IC50 [7] [µM] | IC50 [8] [µM] | SI (CC50/IC50), Neutral Red Uptake Assay [9] | IC50 [10] [µM] | SI (CC50/IC50), Neutral Red Uptake Assay [11] | IC50 [12] [µM] | other results
1 | Nc1nc2c(ncn2[C@@H]2O[C@H](CO)[C@@H](O)[C@H]2F)c(=O)[nH]1 [2’-deoxy-2’-fluoroguanosine] | 8.5 | >4.8 | > 100 | >12 | 0 | >12 | 21 | 8.6 |  |  |  |  | EC50 (influenza virus (H1N1)): 18.2 µM; Mice protected from death (influenza virus): 50%; IC50 (influenza viruses): 8.5 to 21 µM
2 | Nc1ccn([C@@H]2O[C@H](CO)[C@@H](O)[C@H]2I)c(=O)n1 [2’-iodo-2’-deoxycytidine] | > 100 | 0 | > 100 | 0 | 0 | 0 | > 100 | > 100 | 0 | > 100 | 0 | > 100 | 
3 | O=c1ccn([C@@H]2O[C@H](CO)[C@@H](O)[C@H]2F)c(=O)[nH]1 [2’-deoxy-2’-fluorouridine] |  | 0 | > 100 | 0 | 0 |  | > 100 | > 100 |  |  |  |  | 
4 | [N-]=[N+]=N[C@@H]1[C@H](O)[C@@H](COP(=O)(O)OP(=O)(O)OP(=O)(O)O)O[C@H]1n1ccc(N)nc1=O [2’-azido-2’-deoxycytidine, 2'-azido-2'-deoxyctidine-5'-triphosphate] |  |  |  | > 2030 | 0 ± 0 | 0 ± 0 |  |  | 0 ± 0 |  | 0 ± 0 |  | CC50, Neutral Red Uptake Assay (MDCK cells [13]): >100 ± 0 µM; CC50, Visual Assay (MDCK cells [14]): >100 ± 0 µM
5 | Nc1ncnc2c1ncn2[C@@H]1O[C@H](CO)[C@@H](O)[C@H]1F [2’-deoxy-2’-fluoroadenosine] | > 100 | 0 | > 100 | 0 | 0 | 0 | > 100 | > 100 | 0 | > 100 | 0 | > 100 | 
6 | Nc1nc(=O)n([C@H]2C[C@H](O)[C@@H](CO)O2)cc1F [2'-deoxy-5-fluorocytidine] | > 100 |  | > 100 |  | 0 ± 0 | 0 ± 0 | 0.19 ± 0.03 | 0.09 ± 0.1 | 0 ± 0 | > 100 | 0 ± 0 | > 100 | IC90 [15]: 0.13 µM; IC90 [16]: > 100 µM; Tolerability [17]: well- tolerated; Toxicity in mice [17]: considerable toxicity in the form of severe weight loss; IC90 [18]: > 100 µM; Inhibition in the H5N1 mouse model [19]: not inhibitory; Toxicity in the H5N1 mouse model [19]: very toxic; Promotion of survival of infected mice ([19]; mouse): not very effective; Protection from death, i.p. ([19]; mouse): not shielded from death; CC50 (in vitro [20]): > 100 µM; CC50 (in vitro [21]): > 100 µM
